In article PMC12186255, “Discovery and Characterization of Small Molecule Inhibitors Targeting Exonuclease 1 for Homologous Recombination-Deficient Cancer Therapy” (ACS Chemical Biology, 2025):
Entries after “also recorded” stand apart in the source; their conditions may differ.

Columns and labels:
FEN1 = target: T1, FEN1 (Homo sapiens, UniProt P39748); assay: Analogous FRET-based counter screen with purified FEN1; format: biochemical; settings: FRET-based assay, maximum inhibitor concentration 100 μM
T1 construct: made in house
T1 sequence (P39748 whole entry): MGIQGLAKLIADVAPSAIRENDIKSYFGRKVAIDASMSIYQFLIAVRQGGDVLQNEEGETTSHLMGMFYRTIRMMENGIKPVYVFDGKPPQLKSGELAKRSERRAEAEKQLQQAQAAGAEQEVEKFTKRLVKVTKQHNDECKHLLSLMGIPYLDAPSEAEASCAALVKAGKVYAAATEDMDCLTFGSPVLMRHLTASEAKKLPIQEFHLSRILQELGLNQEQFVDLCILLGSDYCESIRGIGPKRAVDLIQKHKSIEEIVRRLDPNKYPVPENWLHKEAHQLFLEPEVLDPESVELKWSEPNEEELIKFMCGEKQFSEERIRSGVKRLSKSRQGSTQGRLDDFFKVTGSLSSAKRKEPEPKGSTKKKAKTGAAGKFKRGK
Procedure: Data were normalized by subtracting the relative fluorescence unit (RFU) of the blank sample from that of each EXO1-containing reaction. The relative activity of individual compounds was subsequently calculated by setting the corrected RFU of EXO1 with DMSO as 100% and comparing the corrected RFU for each condition to the DMSO value. Each assay was performed by sequentially adding experimental compounds, the EXO1 enzyme, and the DNA substrate to minimize starting differences. […] Following IC50 screening, an analogous FRET-based assay was performed using purified FEN1 to assess the EXO1 specificity of each compound.
For subsequent hit confirmation, 84 compounds from the primary screen were picked from our internal stock and subjected to a dose-dependent response assay starting at 100 μM with 3-fold serial dilution. To analyze the data from the dose-dependent response assay, IC50 values for each hit were calculated through nonlinear regression analysis using GraphPad Prism 10 (GraphPad Software, Inc.). […] Subsequently, a counter screen was performed to eliminate potential false-positive hits. To accomplish this, we established an analogous FRET assay using the purified FEN1 enzyme in place of EXO1.

OVCAR-3 = assay: Cell line drug profiling, CellTiter Glo; format: cell-based; settings: Homo sapiens; OVCAR-3, Ovarian, 72 h
Procedure: (§1) We tested the cytotoxicity of representative compounds from the seven EXO1i scaffolds against a subset of the NCI-60 cell line panel along with three additional pancreatic cell lines (FG, AsPC1, and CaPan2). In general, cells were seeded in 384-well tissue culture-treated plates overnight and treated with various concentrations of each hit compound (a serial 3-fold dilution from 50 μM for all tested hits). Each concentration was performed in duplicate. Cell viability was then measured by CellTiter Glo (Promega) after 72 h of treatment.

UO-31 = assay: Cell line drug profiling, CellTiter Glo; format: cell-based; settings: Homo sapiens; UO-31, Kidney, 72 h
Procedure: as §1

MCF7 = assay: Cell line drug profiling, CellTiter Glo; format: cell-based; settings: Homo sapiens; MCF7, Breast, 72 h
Procedure: as §1

CaPan2 = assay: Cell line drug profiling, CellTiter Glo; format: cell-based; settings: Homo sapiens, Capan-2; CaPan2, Pancreatic, 72 h
Procedure: as §1

CCRF-CEM = assay: Cell line drug profiling, CellTiter Glo; format: cell-based; settings: Homo sapiens, Leukemia, 72 h
Procedure: as §1

BT549 = assay: Cell line drug profiling, CellTiter Glo; format: cell-based; settings: Homo sapiens, BT-549; BT549, Breast, 72 h
Procedure: as §1

MCF7 (B3) = assay: Cell line drug profiling, CellTiter Glo; format: cell-based; settings: Homo sapiens, Breast, 72 h
Procedure: as §1

HL-60(TB) = assay: Cell line drug profiling, CellTiter Glo; format: cell-based; settings: Homo sapiens, Leukemia, 72 h
Procedure: as §1

SF-268 = assay: Cell line drug profiling, CellTiter Glo; format: cell-based; settings: Homo sapiens; SF-268, Central Nervous System, 72 h
Procedure: as §1

AsPC1 = assay: Cell line drug profiling, CellTiter Glo; format: cell-based; settings: Homo sapiens; AsPC1, Pancreatic, 72 h
Procedure: as §1

ACHN = assay: Cell line drug profiling, CellTiter Glo; format: cell-based; settings: Homo sapiens, Kidney, 72 h
Procedure: as §1

SK-MEL-28 = assay: Cell line drug profiling, CellTiter Glo; format: cell-based; settings: Homo sapiens; SK-MEL-28, Melanoma, 72 h
Procedure: as §1

HS 578T = assay: Cell line drug profiling, CellTiter Glo; format: cell-based; settings: Homo sapiens, Breast, 72 h
Procedure: as §1

MDA-MB-231 = assay: Cell line drug profiling, CellTiter Glo; format: cell-based; settings: Homo sapiens; MDA-MB-231, Breast, 72 h
Procedure: as §1

FG = assay: Cell line drug profiling, CellTiter Glo; format: cell-based; settings: Homo sapiens, Pancreatic, 72 h
Procedure: as §1

[1] = system: subset of the NCI-60 cell line panel plus FG, AsPC1, CaPan2 (31 cell lines); assay: Tumor cell line drug profiling, CellTiter Glo, whole panel; format: cell-based; settings: Homo sapiens, 72 h, read-out: IC50 values across the cell line panel
Procedure: as §1

EXO1 K85A = target: T2, EXO1 K85A (Homo sapiens, UniProt Q9UQ84, K85A); assay: In vitro exonuclease activity of mutant with inhibitors; format: biochemical; settings: EXO1 25 nM, DNA substrate 250 nM; C200 0-5 μM, F684 10-40 μM
T2 construct: The N-terminal domain of human EXO1 (hEXO1) (residues 1–345) was cloned into the pET28b vector; made in house; host or cells: E. coli BL21(DE3) and Rosetta 2(DE3)
T2 sequence (Q9UQ84 1-345 K85A): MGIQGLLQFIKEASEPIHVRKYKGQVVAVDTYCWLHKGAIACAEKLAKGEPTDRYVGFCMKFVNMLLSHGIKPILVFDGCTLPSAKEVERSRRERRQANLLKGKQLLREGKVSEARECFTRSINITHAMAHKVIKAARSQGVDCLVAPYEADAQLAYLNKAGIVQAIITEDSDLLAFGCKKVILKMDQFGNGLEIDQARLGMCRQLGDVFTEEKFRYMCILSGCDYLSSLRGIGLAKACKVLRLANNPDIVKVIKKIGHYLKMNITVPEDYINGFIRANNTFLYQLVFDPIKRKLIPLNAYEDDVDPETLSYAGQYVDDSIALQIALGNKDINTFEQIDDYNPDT
Procedure: (§2) Simultaneously, we tested the effect of each point mutation on the in vitro exonuclease activity. Most mutations in site 1 result in some loss of enzymatic activity compared to WT EXO1 (Figure S13; WT:Figure S13a), particularly K85A and D225A (Figure S13b,f). […] However, at concentrations of 20 and 40 μM, the mutants (K85A and R92A) behaved more like WT (Figure b).
(§3) In both panels a and b, DMSO without inhibitors was used as a control, and its relative binding activity was set equal to 1.0. The EXO1 enzyme concentration was 25 nM, and the DNA substrate concentration was 250 nM. The values shown are the mean ± S.D. of three independent experiments.
(§4) The N-terminal domain of human EXO1 (hEXO1) (residues 1–345) was cloned into the pET28b vector. The following mutations were introduced via site-directed mutagenesis based on the findings of molecular docking analysis: K85A, E89A, R92A, I125A, D225A, K292A, and K294A (oligonucleotide primers listed in Table S1) following the established protocol.

EXO1 R92A = target: T3, EXO1 R92A (Homo sapiens, UniProt Q9UQ84, R92A); assay: as above; format: biochemical; settings: EXO1 25 nM, DNA substrate 250 nM; C200 0-5 μM, F684 10-40 μM
T3 construct: The N-terminal domain of human EXO1 (hEXO1) (residues 1–345) was cloned into the pET28b vector; made in house; host or cells: E. coli BL21(DE3) and Rosetta 2(DE3)
T3 sequence (Q9UQ84 1-345 R92A): as the sequence (Q9UQ84 1-345 K85A) above, with A85K, R92A counted along it
Procedure: as §2, §3, §4

| SMILES | IC50 (FEN1) [µM] | IC50 (OVCAR-3) [µM] | IC50 (UO-31) [µM] | IC50 (MCF7) [µM] | IC50 (CaPan2) [µM] | IC50 (CCRF-CEM) [µM] | IC50 (BT549) [µM] | IC50 (MCF7 (B3)) [µM] | IC50 (HL-60(TB)) [µM] | IC50 (SF-268) [µM] | IC50 (AsPC1) [µM] | IC50 (ACHN) [µM] | IC50 (SK-MEL-28) [µM] | IC50 (HS 578T) [µM] | IC50 (MDA-MB-231) [µM] | IC50 (FG) [µM] | IC50 [1] [µM] | inhibitory activity against EXO1 K85A mutant vs WT (EXO1 K85A) | inhibitory activity against EXO1 R92A mutant vs WT (EXO1 R92A) |
| --- | --- | --- | --- | --- | --- | --- | --- | --- | --- | --- | --- | --- | --- | --- | --- | --- | --- | --- | --- |
| Cc1cccc(N2CCN(c3ccc(NS(=O)(=O)c4ccccc4)c(C(=O)O)c3)CC2)c1C [F684] | > 100 | 10.9 | 20.6 | 20.1 | 48.1 | 14.6 | 12 | 23.6 | 20.1 | 38.6 | > 50 | 28.9 | 38 | 18.2 | 28.6 | 27.5 | 15 to 25 | partially lost its inhibitory effects; also recorded: abolished | partially lost its inhibitory effects; also recorded: abolished |
| COC(=O)c1nc(-c2ccc(OC)cc2)nc(O)c1O [C200] | > 100 | > 50 | > 50 | > 50 | > 50 | 27.4 | > 50 | > 50 | > 50 | > 50 | > 50 | > 50 | > 50 | > 50 | > 50 | > 50 | > 50 | did not have a significant | partially lost its inhibitory effect; also recorded: abolished |
